Laboratory results: patent US20240293500A1, “PEPTIDE HAVING ANTICANCER ACTIVITY, AND USE THEREOF” (Korea University Research and Business Foundation, priority 2021, published 2024)

Experiments:
lamin B1 protein = assay: Lamin B1 cleavage by western blotting (apoptosis marker); format: cell-based; conditions: MDA-MB-231, 1 μM peptide, 24 hours, nuclear fraction western blotting (FIG. 8)
Description: Next, to confirm the relationship between the anticancer peptide and apoptosis, the degree of cleavage of lamin B1 protein was confirmed. Lamin B1 is originally a type of nuclear protein that is degraded by caspase in apoptosis and used as a biomarker of apoptosis. The MDA-MB-231 cells were cultured and treated with 1 μM of a peptide (No. 1 or 2). After 24 hours, the cells were washed with PBS twice, and lysed with lysis buffer containing NP-40. The nucleus and cytoplasm were separated by centrifugation, and western blotting was performed on each nuclear and cytoplasmic fraction. Here, to determine the degree of separation of the nucleus and cytoplasm, α-tubulin, which is a cytoplasmic marker, and lamin B1 were simultaneously analyzed.

[1] = tested on: matrix metallopeptidase 9 (MMP-9); assay: MMP-9 expression by RT-PCR; format: cell-based; conditions: MDA-MB-231, 1 μM peptide, 24 hours, vs control (FIG. 6)
Description: MDA-MB-231 cells were cultured and treated with 1 μM of a peptide (No. 1 or 2). After 24 hours, RNA was isolated from the cells and the expression level of matrix metallopeptidase 9 (MMP-9), which is a key cell migration factor, was confirmed through RT-PCR.

[2] = tested on: MDA-MB-231 triple-negative breast cancer cell line; assay: MTT assay, co-treatment of peptide with anticancer agent; format: cell-based; conditions: for cell proliferation on co-treatment with paclitaxel compared to paclitaxel alone: MDA-MB-231, 1 μM peptide + 5.4 nM paclitaxel (FIGS. 3 and 4)
Description: To confirm the cytotoxic and anti-proliferative effect of a peptide discovered in the present invention on cancer cells and normal cells, a 3-(4,5-diemthylthiazolyl-2)-2,5-diphenyltetrazolium bromide (MTT) assay was performed. The MTT assay is a method of measuring the growth of living cells and measuring cell viability using MTT reduction by mitochondrial reductase in living cells.
In addition, peptides and anticancer agents were administered together to the MDA-MB-231 triple-negative breast cancer cell line to explore effects associated with drug co-administration and drug resistance. Triple-negative (ER−/PR−/HER2−) breast cancer is a type of breast cancer that is difficult to treat because it is known to have drug resistance to existing hormone therapy and anticancer drugs, and is a suitable model for research on drug resistance and co-administration.
Cell viability was evaluated by an MTT assay by treating MDA-MB-231 cells with 1 μM of the peptide (No. 1 or 2), and 9 μM abemaciclib or 5.4 nM paclitaxel.

[3] = tested on: extracellular signal-regulated kinase (ERK) protein; assay: p-ERK level by Western blot; format: cell-based; conditions: MDA-MB-231, 1 μM peptide, 24 hours, vs control (FIG. 7)
Description: In addition, the change in phosphorylation of extracellular signal-regulated kinase (ERK) protein caused by an anticancer peptide was confirmed. ERK gene is an indicator of drug resistance and inhibition of the growth and apoptosis of cancer cells. The MDA-MB-231 cells were cultured and treated with 1 μM of a peptide (No. 1 or 2). After 24 hours, proteins were isolated from the cells, and a p-ERK level was confirmed by Western blot.

[4] = tested on: MDA-MB-231 xenograft tumor; assay: Xenograft tumor model, tumor size; format: in vivo, BALB/c nude mice; conditions: 2.5 mg/kg intraperitoneally daily, 6 weeks, vs PBS control (FIG. 9)
Description: A xenograft tumor model was constructed by injecting MDA-MB-231 cells into immunodeficient BALB/c nude mice and forming tumors for 1 week. Mice with tumors were randomly divided into a control and an experimental group. The control and the experimental group were intraperitoneally injected daily with PBS (the same volume as a peptide) and the No. 1 peptide (2.5 mg/kg), respectively, and then observed for a total of 6 weeks. During the experimental period, a tumor size was measured with a digital caliper every week, and the final tumor size was compared at week 6.

EQAEEERYFR (listed as Homo sapiens) [No. 2]
cleavage of lamin B1 protein (lamin B1 protein): cleaved | expression of MMP-9 [1]: significantly reduced | cell proliferation on co-treatment with paclitaxel compared to paclitaxel alone [2]: further inhibited | cell proliferation on co-treatment with abemaciclib compared to abemaciclib alone ([2]; MDA-MB-231, 1 μM peptide + 9 μM abemaciclib (FIG. 4)): further inhibited | p-ERK level [3]: significantly reduced

EKAEEDRYFR (listed as Mus musculus) [No. 1]
cleavage of lamin B1 protein (lamin B1 protein): cleaved | expression of MMP-9 [1]: significantly reduced | tumor growth (tumor size) [4]: significant tumor growth inhibitory effect | cell proliferation on co-treatment with paclitaxel compared to paclitaxel alone [2]: further inhibited | p-ERK level [3]: significantly reduced
